The structures appear in SMILES notation. Counter-ions that a name gives are not always drawn.

T1 sequence (Q99705 whole entry): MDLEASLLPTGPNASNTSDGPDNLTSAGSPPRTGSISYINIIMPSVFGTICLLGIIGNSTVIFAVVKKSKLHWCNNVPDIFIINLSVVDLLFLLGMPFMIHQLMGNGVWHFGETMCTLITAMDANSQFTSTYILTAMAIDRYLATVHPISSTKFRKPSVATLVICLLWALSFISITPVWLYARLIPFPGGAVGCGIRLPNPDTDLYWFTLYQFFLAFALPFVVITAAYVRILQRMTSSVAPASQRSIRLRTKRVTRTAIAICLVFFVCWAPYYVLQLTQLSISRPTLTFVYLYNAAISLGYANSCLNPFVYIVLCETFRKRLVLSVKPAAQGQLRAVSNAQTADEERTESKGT

The first data set concerns the target T1, human MCH-1 receptor (Homo sapiens, UniProt Q99705).
T1 construct: purchased Euroscreen Batch 1138
Nature of the data set: Binding assay for human MCH-1 receptor (radioligand displacement). Conditions: membranes from CHO-K1 cells expressing human MCH-1 receptor; 1.4 nM [3H]-labeled compound; 60 min at 25° C.; Ki from Cheng Prusoff equation; read-out: MCH1 Ki. As to the method: Evaluation of the affinity of compounds for the human MCH-1 receptor was accomplished using 4-(3,4,5-tritritiumbenzyloxy)-1-(1-(2-(pyrrolidin-1-yl)ethyl)-1H-indazol-5-yl)pyridin-2(1H)-one and membranes prepared from stable CHO-K1 cells expressing the human MCH-1 receptor obtained from Euroscreen (Batch 1138). Cell membrane homogenates (8.92 μg protein) were incubated for 60 min at 25° C. with 1.4 nM of the [^3H]-labeled compound in the absence or presence of the test compound in 50 mM Tris-HCl buffer, pH 7.4. Nonspecific binding was determined in the presence of 50 μM 1-(5-(4-cyanophenyl)bicyclo[3.1.0]hexan-2-yl)-3-(4-fluoro-3-(trifluoromethyl)phenyl)-1-(3-(4-methylpiperazin-1-yl)propyl)urea. Following incubation, the samples were filtered rapidly under vacuum through Skatron 11731 filters, pre-soaked in 0.5% polyethylenimine, and washed with ice-cold 50 mM Tris-HCl buffer, pH 7.4, (wash setting 9,9,0) using a Skatron cell harvester. The filters were counted for radioactivity in a liquid scintillation counter (Tri-Carb 2100TR, Packard) using a scintillation cocktail (Ultima Gold MV, Perkin Elmer).
The results are expressed as a percent inhibition of the control radioligand specific binding. The IC50 value (concentration causing a half-maximal inhibition of control specific binding) and Hill coefficient (nH) were determined by non-linear regression analysis of the competition curve using Hill equation curve fitting. The inhibition constant (Ki) was calculated from the Cheng Prusoff equation: (Ki=IC50/(1+(L/KD)), where L=concentration of radioligand in the assay, and KD=affinity of the radioligand for the receptor.
On the technique in general: In a radioligand displacement assay an active substance lowers the binding of a labelled ligand.
With `Cn1c2c(c3ccc(N4CCN(CCc5ccccn5)CC4=O)cc31)CCNC2` [Example 3, 1-(9-Methyl-2,3,4,9-tetrahydro-1H-pyrido[3,4-b]indol-7-yl)-4-(2-(pyridin-2-yl)ethyl)piperazin-2-one dihydrochloride], the Ki worked out at 43 nM.

For the compound `Cn1c2c(c3ccc(N4CCN(CCc5ccc(F)cc5)CC4=O)cc31)C(C)(C)NCC2` [Example 16, 4-(4-Fluorophenethyl)-1-(1,1,5-trimethyl-2,3,4,5-tetrahydro-1H-pyrido[4,3-b]indol-7-yl)piperazin-2-one dihydrochloride], the Ki was found to be 17 nM.

For `CC(=O)N1CCc2c(c3ccc(N4CCN(CCc5ccccc5)CC4=O)cc3n2C)C1` [Example 10, 1-(2-Acetyl-5-methyl-2,3,4,5-tetrahydro-1H-pyrido[4,3-b]indol-7-yl)-4-phenethylpiperazin-2-one], the Ki is 57 nM.

Take `Cn1c2c(c3ccc(N4CCN(CCc5ccc(F)cc5)CC4=O)cc31)CNCC2` [Example 11, 4-(4-Fluorophenethyl)-1-(5-methyl-2,3,4,5-tetrahydro-1H-pyrido[4,3-b]indol-7-yl)piperazin-2-one dihydrochloride]: the Ki is 7 nM.

Regarding `Cn1c2c(c3ccc(N4CCN(CCc5ccc(Cl)cc5)CC4=O)cc31)CNCC2` [Example 14, 4-(4-Chlorophenethyl)-1-(5-methyl-2,3,4,5-tetrahydro-1H-pyrido[4,3-b]indol-7-yl)piperazin-2-one dihydrochloride], the Ki came to 5.8 nM.

Consider `CC1Cc2c(c3ccc(N4CCN(CCc5ccc(Cl)cc5)CC4=O)cc3n2C)CN1` (single isomer, unassigned; enantiomer a) [Example 17, 4-(4-Chlorophenethyl)-1-(3,5-dimethyl-2,3,4,5-tetrahydro-1H-pyrido[4,3-b]indol-7-yl)piperazin-2-one hydrochloride (Enantiomer A)], for which the Ki worked out at 7.6 nM.

Regarding `CC1Cc2c(c3ccc(N4CCN(CCc5ccc(F)cc5)CC4=O)cc3n2C)CN1.Cl` (single isomer, unassigned; enantiomer a) [Example 15, 1-(3,5-Dimethyl-2,3,4,5-tetrahydro-1H-pyrido[4,3-b]indol-7-yl)-4-(4-fluorophenethyl)piperazin-2-one hydrochloride (Enantiomer A)], the Ki was found to be 11 nM.

In the case of `CC1Cc2c(c3ccc(N4CCN(CCc5ccc(F)cc5)CC4=O)cc3n2C)CN1.Cl` (centres unmarked) [Example 12, 1-(3,5-Dimethyl-2,3,4,5-tetrahydro-1H-pyrido[4,3-b]indol-7-yl)-4-(4-fluorophenethyl)piperazin-2-one hydrochloride], the Ki came out at 9.7 nM.

For `O=C1CN(CCc2ccccc2)CCN1c1ccc2c3c([nH]c2c1)CCNC3` [Example 9, 4-Phenethyl-1-(2,3,4,5-tetrahydro-1H-pyrido[4,3-b]indol-7-yl)piperazin-2-one dihydrochloride], the Ki was determined as 17 nM.

For the compound `CC(=O)N1Cc2c(n(C)c3cc(N4CCN(CCc5ccc(Cl)cc5)CC4=O)ccc23)CC1C` (single isomer, unassigned; enantiomer a) [Example 18, 1-(2-Acetyl-3,5-dimethyl-2,3,4,5-tetrahydro-1H-pyrido[4,3-b]indol-7-yl)-4-(4-chlorophenethyl)piperazin-2-one (Enantiomer A)], the Ki worked out at 49 nM.

Take `CN1CCc2c(n(C)c3cc(N4CCN(CCc5ccccc5)CC4=O)ccc23)C1` [Example 4, 1-(2,9-Dimethyl-2,3,4,9-tetrahydro-1H-pyrido[3,4-b]indol-7-yl)-4-phenethylpiperazin-2-one dihydrochloride]: the Ki stood at 21 nM.

As for `CN1CCc2c(c3ccc(N4CCN(CCc5ccccc5)CC4=O)cc3n2C)C1` [Example 7, 1-(2,5-Dimethyl-2,3,4,5-tetrahydro-1H-pyrido[4,3-b]indol-7-yl)-4-phenethylpiperazin-2-one hydrochloride], the Ki came to 12 nM.

Take `Cn1c2c(c3ccc(N4CCN(c5ccc(C(F)(F)F)cn5)CC4=O)cc31)CNCC2` [Example 5, 1-(5-Methyl-2,3,4,5-tetrahydro-1H-pyrido[4,3-b]indol-7-yl)-4-(5-(trifluoromethyl)pyridin-2-yl)piperazin-2-one dihydrochloride]: the Ki is 534 nM.

On to `Cn1c2c(c3ccc(N4CCN(CCc5ccccc5)CC4=O)cc31)CCNC2` [Example 2, 1-(9-Methyl-2,3,4,9-tetrahydro-1H-pyrido[3,4-b]indol-7-yl)-4-phenethylpiperazin-2-one hydrochloride], for which the Ki was found to be 26 nM.

Consider `Cn1c2c(c3ccc(N4CCN(CCc5ccccn5)CC4=O)cc31)CNCC2` [Example 8, 1-(5-Methyl-2,3,4,5-tetrahydro-1H-pyrido[4,3-b]indol-7-yl)-4-(2-(pyridin-2-yl)ethyl)piperazin-2-one dihydrochloride], for which the Ki turned out to be 123 nM.

For `CC1Cc2c(c3ccc(N4CCN(CCc5ccc(Cl)cc5)CC4=O)cc3n2C)CN1.Cl` (centres unmarked) [Example 13, 4-(4-Chlorophenethyl)-1-(3,5-dimethyl-2,3,4,5-tetrahydro-1H-pyrido[4,3-b]indol-7-yl)piperazin-2-one hydrochloride], the Ki turned out to be 5.3 nM.

Take `Cn1c2c(c3ccc(N4CCN(CCc5ccccc5)CC4=O)cc31)CNCC2` [Example 6, 1-(5-Methyl-2,3,4,5-tetrahydro-1H-pyrido[4,3-b]indol-7-yl)-4-phenethylpiperazin-2-one dihydrochloride]: the Ki came out at 11 nM.

System in another data set: not given
Experiment: not given
Details: not given
In turn, `CC1Cc2c(c3ccc(N4CCN(CCc5ccc(F)cc5)CC4=O)cc3n2C)CN1.Cl` (single isomer, unassigned; enantiomer a) [Example 15, 1-(3,5-Dimethyl-2,3,4,5-tetrahydro-1H-pyrido[4,3-b]indol-7-yl)-4-(4-fluorophenethyl)piperazin-2-one hydrochloride (Enantiomer A)] showed a melting point of 295 to 300 °C.

The compound `CC1Cc2c(c3ccc(N4CCN(CCc5ccc(F)cc5)CC4=O)cc3n2C)CN1.Cl` (centres unmarked) [Example 12, 1-(3,5-Dimethyl-2,3,4,5-tetrahydro-1H-pyrido[4,3-b]indol-7-yl)-4-(4-fluorophenethyl)piperazin-2-one hydrochloride] had a melting point of 280 to 285 °C.

In turn, `CC1Cc2c(c3ccc(N4CCN(CCc5ccc(Cl)cc5)CC4=O)cc3n2C)CN1.Cl` (centres unmarked) [Example 13, 4-(4-Chlorophenethyl)-1-(3,5-dimethyl-2,3,4,5-tetrahydro-1H-pyrido[4,3-b]indol-7-yl)piperazin-2-one hydrochloride] displayed a melting point of 294 to 300 °C.

As usually defined, the Ki is a dissociation constant, usually derived from enzyme kinetics or from competition with a known ligand. In general, melting point refers to the temperature of the solid-liquid transition.

Source of the values: patent US8697700B2, “Piperazinone-substituted tetrahydro-carboline MCH-1 antagonists, methods of making, and uses thereof” (Albany Molecular Research, Inc., priority 2010, dated 2014).
